From ChEMBL document CHEMBL4813985, “Lead optimization generates selenium-containing miconazole CYP51 inhibitors with improved pharmacological profile for the treatment of fungal infections” (Eur J Med Chem, 2021) come the findings set out here.

pIC50: −log10 of the molar value. Converted amounts (≈) assume the structure as drawn.

One series deals with MDA-MB-231. Nature of the series: Cytotoxicity against human MDA-MB-231 cells assessed as reduction in cell viability incubated for 96 hrs by MTT assay. To be noted: MDA-MB-231, 96 h.
Series [1] in a line: Metabolic stability in mouse liver microsomes assessed as clearance. It counts as ADME, Microsome. To be noted: read-out: CLH.
A further series has as its system Aspergillus fumigatus. Nature of the series: Antifungal activity against Aspergillus fumigatus CMGCC3.7795 measured after 72 hrs by broth microdilution assay. It counts as functional.
The test system of series [2] is Candida albicans. Briefly: Antifungal activity against Candida albicans CPCC400616 measured after 24 hrs by broth microdilution assay. Type of series: functional.
The next series deals with [Candida] zeylanoides. Briefly: Antifungal activity against Candida zeylanoides CMGCC2.3739 measured after 24 hrs by broth microdilution assay. Type of series: functional. To be noted: Dujonia zeylanoides.
For series [3], the system named is Candida albicans. Nature of the series: Antifungal activity against fluconazole-resistant Candida albicans 901 assessed as inhibition of microbial growth after 24 hrs by broth microdilution method. Type of series: functional.
The subject of the next series is Erythrocyte. Nature of the series: Hemolytic activity in rabbit RBC measured after 3 hrs by microplate reader assay. It counts as ADME, cell-based, Oryctolagus cuniculus.
The next series concerns Cryptococcus neoformans. Nature of the series: Antifungal activity against Cryptococcus neoformans CMGCC2.3161 measured after 72 hrs by broth microdilution assay. Type of series: functional.
Series [4] in a line: Hemolytic activity in rabbit RBC assessed as hemolysis ratio at 8 ug/ml measured after 3 hrs by microplate reader assay relative to control. It counts as ADME, cell-based, Oryctolagus cuniculus, Erythrocyte. To be noted: rabbit red blood cells (erythrocytes), at 8 µg/mL, read-out: Activity.
A further series has as its system MCF-10A. Nature of the series: Cytotoxicity against human MCF-10A cells assessed as reduction in cell viability incubated for 96 hrs by MTT assay. Type of series: cell-based. To be noted: read-out: IC50.
Another series concerns Pichia kudriavzevii. Briefly: Antifungal activity against Candida krusei AS2.1045 measured after 24 hrs by broth microdilution assay. Type of series: functional.
Series [5] deals with Candida albicans. Nature of the series: Antifungal activity against fluconazole-resistant Candida albicans 17# assessed as inhibition of microbial growth after 24 hrs by broth microdilution method. It counts as functional.
Series [6] is described as follows: Hemolytic activity in rabbit RBC assessed as hemolysis ratio at 2 ug/ml measured after 3 hrs by microplate reader assay relative to control. Type of series: ADME, cell-based, Oryctolagus cuniculus, Erythrocyte. To be noted: rabbit red blood cells (erythrocytes), at 2 µg/mL, read-out: Activity.
A further series concerns PC-3. Briefly: Cytotoxicity against human PC3 cells assessed as reduction in cell viability incubated for 96 hrs by MTT assay. Type of series: cell-based. To be noted: PC-3, 96 h, read-out: IC50.
The next series concerns Candida parapsilosis. Nature of the series: Antifungal activity against Candida parapsilosis ATCC 22019 measured after 24 hrs by broth microdilution assay. Type of series: functional. To be noted: Lodderomyces parapsilosis.
In series [7] the test system is Candida albicans. Nature of the series: Antifungal activity against fluconazole-resistant Candida albicans CaR assessed as inhibition of microbial growth after 24 hrs by broth microdilution method. Type of series: functional.
A short description of series [8]: Metabolic stability in mouse liver microsomes assessed as half life. It counts as ADME, Microsome.
Another series concerns Nakaseomyces glabratus. Briefly: Antifungal activity against Candida glabrata measured after 24 hrs by broth microdilution assay. Type of series: functional.
The test system of the next series is HL-60. Briefly: Cytotoxicity against human HL-60 cells assessed as reduction in cell viability incubated for 96 hrs by MTT assay. To be noted: HL-60, 96 h. It counts as cell-based.
In series [9] the test system is Candida albicans. Briefly: Antifungal activity against fluconazole-resistant Candida albicans 904 assessed as inhibition of microbial growth after 24 hrs by broth microdilution method. It counts as functional.
A short description of series [10]: Hemolytic activity in rabbit RBC assessed as hemolysis ratio at 1 ug/ml measured after 3 hrs by microplate reader assay relative to control. Type of series: ADME, cell-based, Oryctolagus cuniculus, Erythrocyte. To be noted: rabbit red blood cells (erythrocytes), at 1 µg/mL, read-out: Activity.
Series [11] can be described thus: Hemolytic activity in rabbit RBC assessed as hemolysis ratio at 16 ug/ml measured after 3 hrs by microplate reader assay relative to control. To be noted: rabbit red blood cells (erythrocytes), at 16 µg/mL, read-out: Activity. Type of series: ADME, cell-based, Oryctolagus cuniculus, Erythrocyte.
Series [12] has as its system Candida albicans. Nature of the series: Antifungal activity against fluconazole-resistant Candida albicans 632 assessed as inhibition of microbial growth after 24 hrs by broth microdilution method. Type of series: functional.
Series [13] concerns Candida albicans. Nature of the series: Antifungal activity against Candida albicans ATCC SC5314 measured after 24 hrs by broth microdilution assay. Type of series: functional.
The nature of series [14]: Hemolytic activity in rabbit RBC assessed as hemolysis ratio at 4 ug/ml measured after 3 hrs by microplate reader assay relative to control. Type of series: ADME, cell-based, Oryctolagus cuniculus, Erythrocyte. To be noted: rabbit red blood cells (erythrocytes), at 4 µg/mL, read-out: Activity.
The subject of series [15] is Candida albicans. Nature of the series: Potency index, ratio of fluconazole MIC to test compound MIC for Candida albicans CPCC400616 measured after 24 hrs by broth microdilution assay. It counts as functional.
For series [16], the system named is Candida albicans. Nature of the series: Potency index, ratio of miconazole MIC to test compound MIC for Candida albicans CPCC400616 measured after 24 hrs by broth microdilution assay. Type of series: functional.

In the case of `Clc1ccc(C(Cn2ccnc2)[Se]Cc2ccccc2Cl)c(Cl)c1` (stereo not given), the negative-log IC50 (pIC50) with MDA-MB-231 is 5.04; with MCF-10A it was 4.52; in the series with PC-3, 4.88; with HL-60, 5.99. In addition, the CLint scaled in [1] amounted to 1310 mL/min/kg. The MIC was 2 µg/mL (≈ 4.5 µM) in the series with Aspergillus fumigatus; 0.02 µg/mL (≈ 0.045 µM) against Candida albicans [2]; 1 µg/mL (≈ 2.25 µM) in series [Candida] zeylanoides; 0.5 µg/mL with Candida albicans [3]; 0.25 µg/mL (≈ 0.562 µM) with Cryptococcus neoformans; 0.13 µg/mL (≈ 0.292 µM) with Pichia kudriavzevii. Besides, the minimum inhibitory concentration (MIC) in the series with Candida albicans [5] was found to be 0.13 µg/mL; in the series with Candida parapsilosis, 0.13 µg/mL (≈ 0.292 µM); in the series on Candida albicans [7], 0.06 µg/mL; against Nakaseomyces glabratus, 0.5 µg/mL (≈ 1.12 µM); in the series on Candida albicans [9], 0.25 µg/mL; in the series with Candida albicans [12] it was 1 µg/mL. In the series with Candida albicans [13], this compound came in with a minimal inhibitory concentration (MIC) of 0.01 µg/mL (≈ 0.0225 µM). Also, the MHC in the series on Erythrocyte turned out to be 4 µg/mL. The hemolysis at 3 h, 8 ug/ml in series [4] was determined as 93.2%. Besides, the hemolysis at 3 h, 2 ug/ml in [6] was 3.15%. Also, the half-life in series [8] amounted to 4.2 min. The hemolysis at 3 h, 1 ug/ml in series [10] was 0%. Also, in series [11], the hemolysis at 3 h, 16 ug/ml was determined as 98.2%. In addition, the hemolysis at 3 h, 4 ug/ml in [14] stood at 58.9%.
On to `Cc1cccc(C)c1[Se]C(Cn1ccnc1)c1ccc(F)cc1F` (stereo not given), for which the MIC in the series on Aspergillus fumigatus was found to be 8 µg/mL (≈ 20.4 µM); with Candida albicans [2], 0.03 µg/mL (≈ 0.0767 µM); in series [Candida] zeylanoides, 0.13 µg/mL (≈ 0.332 µM); in the series on Candida albicans [3] it was 2 µg/mL; in the series with Cryptococcus neoformans it was 0.25 µg/mL (≈ 0.639 µM); in the series on Pichia kudriavzevii it was 0.02 µg/mL (≈ 0.0511 µM). The minimum inhibitory concentration (MIC) was determined as 0.25 µg/mL in the series on Candida albicans [5]; 0.06 µg/mL (≈ 0.153 µM) against Candida parapsilosis; 8 µg/mL in the series on Candida albicans [7]; 0.5 µg/mL (≈ 1.28 µM) in the series with Nakaseomyces glabratus; 2 µg/mL in the series with Candida albicans [9]; 1 µg/mL in the series with Candida albicans [12]. In the series on Candida albicans [13], inhibition of growth (MIC) required 0.02 µg/mL (≈ 0.0511 µM). Besides, the Ratio in the series on Candida albicans [15] and in the series on Candida albicans [16] was 8 throughout.
